The values below come from patent US12226374B2, “Compositions comprising quinone and/or quinol and methods of preparations and use thereof” (American River Nutrition, LLC, priority 2019, dated 2025).

Common to all, as to type: physicochemical
Data set [1] can be described thus: Stability of CoQ10 at elevated temperatures in CoQ:AP:GG mixture (HPLC). As to the method:
(§1) The weight ratios of CoQone to CoQnol in the mixture were determined by HPLC using a modified method disclosed by Mattila (Mattila et al., 2000), which is incorporated by reference in its entirety. Samples were extracted from the mixing vessel under inert gas flush and the mixing vessel was then flushed with inert gas prior to resealing. Samples were dissolved in chloroform and then analyzed on a Waters Symmetry C18 column (5 μm, 4.6×250 mm) at about 35° C. The mobile phase (1.8 mL/min) was methanol:ethanol:2-propanol (53:25:22) with UV detection at 275 nm for CoQone and 290 nm for CoQnol. The retention times were about 5.7 min for CoQnol and about 8.8 min for CoQone, respectively. The HPLC method described herein was utilized in subsequent examples.
GG was added to an appropriately sized mixing vessel and heated to about 52° C. (±3°) while stirring. CoQone was added to the mixing vessel with GG to form a mixture. The mixture was stirred at about 52° C. (±3°) until CoQone was completely melted and solubilized in GG to attain a translucent solution. Then AP was added to the translucent solution, which was stirred until no visible dry AP was left on the surface. […] This mixture was then mixed at elevated temperature for 10 days with periodic flushing of neutral, non-oxygenated gas where the CoQnol conversion rate and the total amount of CoQ (both CoQnol and CoQone) were monitored.

Data set [2] in a line: CoQone solubilized in GG as binary mixture: dissolution and degradation. The settings on record: CoQone about 25% / GG about 75%. On the procedure: as §1
GG was added to an appropriately sized mixing vessel and heated to about 52° C. (±3°) while stirring. CoQone was added to the mixing vessel with GG to form a mixture. The mixture was stirred at about 52° C. (±3°) until CoQone was completely melted and solubilized in GG to attain a translucent solution. The mixing vessel was then flushed with a neutral, non-oxygenated gas until atmospheric air was displaced and the mixing vessel was sealed airtight. This mixture was then mixed for several days.

Data set [3] can be described thus: CoQone mixed directly with AP (binary mixture) at elevated temperature: total CoQ degradation. To be noted: about 75° C., about 3 days. As to the method: as §1
CoQone was added to an appropriately sized mixing vessel and melted at about 52° C. (±3°) while stirring. AP was added to the mixing vessel with CoQone to form a mixture. The mixture was gently stirred at about 52° C. (±3°) until no apparent dry AP was visible. The mixing vessel was then flushed with a neutral, non-oxygenated gas until atmospheric air was displaced and the mixing vessel was sealed airtight. This mixture was then mixed at elevated temperature for several days with periodic flushing of inert gas with the CoQone to CoQnol conversion rate being monitored.

The nature of data set [4]: Headspace comparison of inert gases (nitrogen vs argon): total CoQ10 loss. To be noted: CoQ10:AP:GG about 4:2:4, about 52° C., about 6-7 days. As to the method:
as §1
CoQ10, AP, and GG are provided in the weight ratio of about 4:2:4. The three components were placed in a mixing vessel kept stirred at about 52° C. (±3°). The mixing vessel was flushed with a neutral, non-oxygenated gas until atmospheric air was displaced entirely by Nitrogen […] or Argon (Ar) and sealed airtight. This mixture was then stirred at elevated temperatures for about 6-7 days until the target CoQnol conversion rate was reached.

Data set [5] can be described thus: Manufacture production batch (20 kg) and softgels: total CoQ loss and stability. The settings on record: 20 kg CoQone:AP:GG batch, argon, about 52° C., about six days. On the procedure:
A manufacture batch was run according the preparation methods set forth in Example 1 with the following modifications. The total amount of CoQone:AP:GG mixtures was 20 kg. Argon was used to flush the mixing vessel until the atmospheric air was displaced. After the mixing vessel was sealed air-tight, this mixture of CoQone:AP:GG was then stirred at about 52° C. (±2°) for about six days with periodic flushing of Argon for about every 24 hours.
The final composition in the sealed vessel was placed in a hopper for the encapsulation process in a softgel assembly line. The finished softgels were analyzed to determine that the weight percentage of CoQnol in total amount of CoQnol and CoQone is about 93%. […] Softgels are hermetically sealed and the contents within the softgels are expected to be stable for at least about 2 years.

On to `COC1=C(OC)C(=O)C(C/C=C(\C)CC/C=C(\C)CC/C=C(\C)CC/C=C(\C)CC/C=C(\C)CC/C=C(\C)CC/C=C(\C)CC/C=C(\C)CC/C=C(\C)CCC=C(C)C)=C(C)C1=O` [CoQ10], for which, in data set [1] (about 3-5 days at about 50-55° C., initial ratio CoQ:AP:GG 1:1:1), the “loss of total CoQ10” value is reported as “less than 5%”. The “loss of total CoQ (both CoQone and CoQnol)” value in data set [1] (about 8-10 days at about 50-55° C., fixed initial ratio CoQ:AP:GG about 1:1:1, inert gas with periodic flushing) is given as “about 15%”. Further, the “dissolution of CoQ10 in GG” value in data set [2] (about 52° C.) is “completely dissolved”. In data set [2] (after about 3 weeks, inert gas), the “degradation of CoQ” value is given as “nor was there any degradation”. Moreover, the “total CoQ10 degraded” value in data set [3] was “about 21%”. Further, the “total loss of CoQ10” value in data set [4] (argon-filled headspace) is reported as “less than 0.5%”. For the same molecule, the “total CoQ10 loss” value in data set [4] (nitrogen-filled headspace) is given as “about 7%”. Moreover, the “loss of the total CoQ” value in data set [5] is “without any measurable loss”.
